Results taken from patent US12151000B2, “Tolerogenic artificial antigen-presenting cells” (THE JOHNS HOPKINS UNIVERSITY, priority 2019, dated 2024).

Columns and labels:
[1] = test system: human PBMCs (TReg cells, CD8^+ and CD4^+ effector T cells); assay: Human PBMC STAT5 phosphorylation in T cell subsets; assay type: cell-based; conditions: human PBMCs from healthy donor whole blood
Procedure: Human PBMC STAT5 phosphorylation studies. Human PBMCs were isolated from whole blood of healthy donors via Ficoll gradient following manufacturer protocols and then incubated with ACK lysis buffer for removal of red blood cells. Approximately 1×10^6 human PBMCs were plated in each well of a 96-well plate and re-suspended in RPMI complete medium containing serial dilutions of the indicated treatments. Cytokine/antibody complexes were formed by incubating a 1:1 molar ratio of F5111 antibody to hIL-2 for 1 hour at 37° C. Cells were stimulated for 20 minutes at 37° C. and immediately fixed by addition of 1X Fix/Perm Buffer (BD Biosciences) and 50 minute incubation at 4° C. Permeabilization of cells was achieved by resuspension in Perm Buffer III (BD Biosciences) overnight at −20° C. […] Cells were then washed twice in FACS buffer and MFI was determined on a CytoFLEX flow cytometer (Beckman-Coulter). Dose-response curves were fitted to a logistic model and half-maximal effective concentrations (EC50s) were calculated using GraphPad Prism data analysis software after subtraction of the mean fluorescence intensity (MFI) of unstimulated cells and normalization to the maximum signal intensity. […]

IL-2Rα^− YT-1 cells = assay: YT-1 cell STAT5 phosphorylation, IL-2Rα− cells; assay type: cell-based, human; conditions: flow cytometry, 20 minutes stimulation
Procedure: (§1) YT-1 cell STAT5 phosphorylation studies. Approximately 2×10^5 IL-2Rα^− YT-1 or IL-2Rα^+ YT-1 cells were plated in each well of a 96-well plate and re-suspended in RPMI complete medium containing serial dilutions of the indicated treatments. Cytokine/antibody complexes were formed by incubating a 1:1 molar ratio of F5111 antibody to hIL-2 for 1 hour at 37° C. Cells were stimulated for 20 minutes at 37° C. and immediately fixed by addition of formaldehyde to 1.5% and 10 minute incubation at room temperature. Permeabilization of cells was achieved by resuspension in ice-cold 100% methanol for 30 minutes at 4° C. Fixed and permeabilized cells were washed twice with FACS buffer (phosphate-buffered saline [PBS] pH 7.2 containing 0.1% BSA [Thermo Fisher Scientific]) and incubated with Alexa Fluor® 647-conjugated anti-STAT5 pY694 (BD Biosciences) diluted in FACS buffer for 2 hours at room temperature. Cells were then washed twice in FACS buffer and mean fluorescence intensity (MFI) was determined on a CytoFLEX flow cytometer (Beckman-Coulter). Dose-response curves were fitted to a logistic model and half-maximal effective concentrations (EC50s) were calculated using GraphPad Prism data analysis software after subtraction of the mean fluorescence intensity (MFI) of unstimulated cells and normalization to the maximum signal intensity.
(§2) A cell signaling assay was performed on YT-1 human NK cells with or without IL-2Rα.

[2] = test system: CD4+ T cells from C57BL/6 mice; assay: pSTAT5 expression in C57BL/6 CD4+ T cells; assay type: cell-based, mouse
Procedure: FIG. 22 is a graph showing the results of B6 CD4+ cells stimulation with titrated encapsulated particle doses or equivalent free doses of F5111 for different lengths of time, and the analysis of pSTAT5 expression using flow cytometry. A dose titration for free and MP-loaded F5111 IC LN35 was observed, with maximum pSTAT5 expression achieved after 1 hour of stimulation.
To evaluate the functionality of F5111 IC-loaded particles, mouse CD4+ T cells were stimulated with F5111 IC-loaded microparticles to identify an optimal stimulation time for maximum pSTAT5 expression, and pSTAT5 expression was compared to that of cells stimulated with free F5111 IC. CD4+ T cells were isolated from C57BL/6 mice and incubated with various doses of F5111 IC-loaded microparticles or equivalent doses of free F5111 IC for 20, 40, 60, or 120 minutes.

IL-2Rα^+ YT-1 cells = assay: YT-1 cell STAT5 phosphorylation, IL-2Rα+ cells; assay type: cell-based, human; conditions: for selective activation of IL-2Rα^+ TReg-like cells over IL-2Rα^− TEff-like cells (bias): YT-1 cells with or without IL-2Rα; for STAT5 activation on IL-2Rα^+ YT-1 cells: flow cytometry, 20 minutes stimulation
Procedure: as §1, §2

[3] = test system: CD4^+ T cells from B6 mice; assay: In vitro FOXP3+ cell expansion in B6 CD4+ T cells; assay type: cell-based, mouse; conditions: 3 days
Procedure: F5111 IC LN35-loaded microparticles or free F5111 IC LN35 (at a dose equivalent to the particle loading dose) were incubated with CD4+ cells from B6 mice for 3 days, and cells were analyzed for FOXP3 expression via flow cytometry.
To determine whether F5111 IC-encapsulated MPs could induce in vitro TReg cell expansion, CD4^+ T cells were isolated from the spleens of B6 mice and incubated with unconjugated F5111 IC or F5111 IC-loaded PLGA MPs for 3 days. Cells were then stained for CD4, CD25, and FOXP3, and analyzed using flow cytometry.

IL-2Rβ = molecular target: T1, IL-2Rβ (Homo sapiens, UniProt P14784); assay: Bio-layer interferometry binding to immobilized IL-2Rβ
T1 construct: the extracellular domains of the hIL-2Rα (residues 1-214) and hIL-2Rβ (residues 1-214) receptor subunits; hexahistidine (C); made in house; host or cells: HEK 293F
T1 sequence (P14784 27-240): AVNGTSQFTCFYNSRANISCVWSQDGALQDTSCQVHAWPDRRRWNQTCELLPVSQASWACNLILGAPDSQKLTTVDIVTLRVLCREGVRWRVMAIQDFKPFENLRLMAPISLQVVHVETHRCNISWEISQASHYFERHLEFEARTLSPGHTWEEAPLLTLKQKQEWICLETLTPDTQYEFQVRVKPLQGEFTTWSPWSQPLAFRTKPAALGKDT
Procedure: (§3) Bio-layer interferometry binding studies. […] Less than 5 signal units (nm) of receptor was immobilized to minimize mass transfer effects. […] An irrelevant protein was included in a reference well to subtract non-specific binding. Surface regeneration for all interactions was conducted using a 15 second exposure to 0.1 M glycine pH 3.0. Experiments were carried out in PBSA (phosphate-buffered saline, pH 7.3 plus 0.1% bovine serum albumin (BSA, Thermo Fisher Scientific)) at 25° C. Data was visualized and processed using the Octet® Data Analysis software version 7.1 (Molecular Devices). Equilibrium titration curve fitting and KD value determination was implemented using GraphPad Prism, assuming all binding interactions to be first order. Experiments were reproduced two times with similar results.
(§4) The binding affinities were also evaluated using bio-layer interferometry on an OCTET® instrument with biotinylated hIL-2 immobilized on a streptavidin-coated tip (FIG. 6B). […] Bio-layer interferometry based binding studies were also conducted to assess the interaction between F5111 IC LN15 and the IL-2Rα and IL-2Rβ receptor chains, to ensure that the single-chain antibody/cytokine fusion was biased toward engagement of IL-2Rα (which is highly expressed on TReg cells but not effector cells) compared with IL-2Rβ.
(§5) Additionally, binding interactions between F5111 IC LN25 and LN35 with the human IL-2Rα (hIL-2Rα) and hIL-2Rβ subunits were measured using bio-layer interferometry on an Octet® instrument by immobilizing biotinylated hIL-2Rα and IL-2Rβ on streptavidin-coated tips.

immobilized hIL-2 = molecular target: T2, immobilized hIL-2 (Homo sapiens, UniProt P60568); assay: Bio-layer interferometry binding to immobilized hIL-2; conditions: biotinylated hIL-2 immobilized
T2 construct: The full hIL-2 cytokine (residues 1-133) and the extracellular domains; hexahistidine (C); made in house; host or cells: HEK 293F
Procedure: as §3, §4

human IL-2 (hIL-2) = molecular target: T3, human IL-2 (hIL-2) (Homo sapiens, UniProt P60568); assay: Yeast surface binding study, yeast-displayed hIL-2, flow cytometry; conditions: yeast surface-displayed hIL-2
T3 construct: hIL-2 (residues 1-133) or mIL-2 (residues 1-149) were cloned into the pCT302 vector; made in house; host or cells: yeast (surface display)
Procedure: Yeast surface binding studies. For antibody binding studies on yeast, hIL-2 (residues 1-133) or mIL-2 (residues 1-149) were cloned into the pCT302 vector and presented on the surface of yeast, as described previously (Boder et al., Nat. Biotechnol., 15(6): 553-557 (1997)). […] Cells were then washed and stained with a 1:200 dilution of Alexa647-conjugated streptavidin (Thermo) in PBSA for 15 minutes at 4° C. After a final wash, cells were analyzed for antibody binding using a CytoFLEX flow cytometer (Beckman Coulter). Background-subtracted and normalized binding curves were fitted to a first-order binding model and equilibrium dissociation constant (KD) values were determined using GraphPad Prism. Studies were performed three times with similar results.
A rapid small-scale HEK 293F cell transfection assay was developed to optimize immunocytokine expression. Cells were transfected in 6-well plates with predefined ratios of heavy chain (HC) and IL-2-fused light chain (LC) plasmid DNA. After a 3-day incubation, secreted protein was captured from the supernatant with protein G resin, eluted with 0.1 M glycine pH 2.0, and analyzed via SDS-PAGE. […]
(§6) The binding affinities were also evaluated using bio-layer interferometry on an OCTET® instrument with biotinylated hIL-2 immobilized on a streptavidin-coated tip (FIG. 6B). […]

IL-2Rα = molecular target: T4, IL-2Rα (Homo sapiens, UniProt P01589); assay: Bio-layer interferometry binding to immobilized IL-2Rα
T4 construct: the extracellular domains of the hIL-2Rα (residues 1-214) and hIL-2Rβ (residues 1-214) receptor subunits; hexahistidine (C); made in house; host or cells: HEK 293F
T4 sequence (P01589 22-235): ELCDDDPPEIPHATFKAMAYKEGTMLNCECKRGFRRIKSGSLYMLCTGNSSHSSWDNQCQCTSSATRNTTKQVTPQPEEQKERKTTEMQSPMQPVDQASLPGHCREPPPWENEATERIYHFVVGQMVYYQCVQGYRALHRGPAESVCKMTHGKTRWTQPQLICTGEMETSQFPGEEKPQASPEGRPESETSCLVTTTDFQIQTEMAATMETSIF
Procedure: as §3, §6, §5

T2 sequence (P60568 21-153): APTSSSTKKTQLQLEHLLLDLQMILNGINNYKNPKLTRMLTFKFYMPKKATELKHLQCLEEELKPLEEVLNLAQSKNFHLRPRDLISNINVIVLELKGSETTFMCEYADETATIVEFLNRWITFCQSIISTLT
T3 sequence (P60568 21-153): as above

Substance	STAT5 activation of TReg cells compared to CD8^+ and CD4^+ effector T cells [1]	STAT5 activation on IL-2Rα^− YT-1 cells (IL-2Rα^− YT-1 cells)	stimulation time of maximum pSTAT5 activation [2] [minutes]	activation (pSTAT5) of CD4^+ T cells ([2]; various doses, 20, 40, 60, or 120 minutes)	selective activation of IL-2Rα^+ TReg-like cells over IL-2Rα^− TEff-like cells (bias) (IL-2Rα^+ YT-1 cells)	STAT5 activation on IL-2Rα^+ YT-1 cells (IL-2Rα^+ YT-1 cells)	expansion of FOXP3+ cells compared to untreated cells [3]	binding to IL-2Rβ compared to free IL-2 (IL-2Rβ)	binding affinity for hIL-2 relative to F5111 Ab (immobilized hIL-2)	binding affinity for hIL-2 relative to F5111 Ab (human IL-2 (hIL-2))	binding to IL-2Rα compared to free IL-2 (IL-2Rα)
F5111 IC LN35: immunocytokine: hIL-2 fused to N-terminus of F5111 antibody light chain by 35-amino acid (Gly4Ser)7 linker	significantly more potent activation	immeasurable	60	dose-dependent manner	greater bias than F5111 IC LN15 and the hIL-2/F5111 complex	sub-nanomolar concentrations	expanded FOXP3+ cells	significant reduction in the binding affinity			
F5111 IC LN25: immunocytokine: hIL-2 fused to N-terminus of F5111 antibody light chain by 25-amino acid (Gly4Ser)5 linker		immeasurable			greater bias than F5111 IC LN15 and the hIL-2/F5111 complex	sub-nanomolar concentrations		significant reduction in the binding affinity			
F5111 IC LN15: immunocytokine: hIL-2 fused to N-terminus of F5111 antibody light chain by 15-amino acid (Gly4Ser)3 linker		dramatically reduced				only mildly impaired		significantly impaired binding	significant reduction in binding affinity	significant reduction in binding affinity	equal potency to the free IL-2 cytokine
